Results on eleven compounds are retold here after publication PMC6627058, “Slow-Binding Inhibition of Tyrosinase by Ecklonia cava Phlorotannins” (Marine Drugs, 2019).

Assay [1] has as its target T1, tyrosinase (Agaricus bisporus, UniProt C7FF04).
T1 construct: purchased Sigma-Aldrich T3824
Description: Slow-binding inhibition analysis (progress curves). The format is biochemical, mushroom. To be noted: for Ki: apparent Ki from slow-binding analysis, read-out: kapp i; for Slow-binding mechanism: replot of kobs vs [I]. The procedure: To confirm time-dependent inhibition by the potential inhibitors (compounds 3 and 5), the substrate was added into a mixture of ligand (3.1 μM) that was preincubated with tyrosinase. Over time, their inhibitory activities increased. To calculate the slow-binding parameters (k3, k4, k5, k6, and kapp i), the progress curves were analyzed using equation (2), with increasing concentrations of compounds 3 and 5 (Figure 3C,D); a replot of kobs was obtained as [I] (Figure 3E,F). The replot of compound 3 was a straight line that fit equation (3). […] The two strongest inhibitors had different slow-binding mechanisms. Inhibitor 5, which has a higher molecular weight, induced a new conformational state of the enzyme.
The progress curves were calculated to Equation (2) by Morrison according to time course for 420 s. [P] = vst + [(v0 − vs)/kobs(1 − e^−kobst)](2) where t is time, [P] is product intensity, v0 and vs are the initial and steady-state reaction velocities, and kobs is the apparent first-order rate […]. kobs = k4 + k3[I](3) (4) Kiapp=k4/k3
This is a linear Equation (3) for slow-binding mechanism A. Kiapp is the apparent value of an inhibitor by Equation (4). Where [I] is inhibitor concentration. (5) kobs=k6+[(k5×[I])/(Kiapp+[I])
Equation (5) of hyperbola is for the calculation of rate constant in slow-binding mechanism B.

Assay [2] deals with T1, tyrosinase. Description: Tyrosinase assay (L-tyrosine substrate, product detected at 475 nm). The assay is classed as biochemical, mushroom. To be noted: for Binding mode: Lineweaver–Burk and Dixon plots; for Ki: based on Dixon plots; for inhibition at 100 µM: read-out: Inhibitory activity on tyrosinase at 100 μM (%). The procedure: Phlorotannins of E. cava and E. stolonifera were reported to have the inhibitory activity on mushroom tyrosinase. […] This study evaluated the ability of the isolated phlorotannins 1–7 to suppress the catalytic reaction of tyrosinase over time, in the absence or presence of inhibitor. […]. A commercial tyrosinase inhibitor was used as a positive control (kojic acid; […]. To identify potent inhibitors, the inhibitory activity of all of the isolated compounds at 100 μM was tested against tyrosinase in vitro (Table 1). Of these, compounds 2–5 were confirmed to have inhibitory activity exceeding 50%. Serial dilutions were used to calculate the IC50 values. The tyrosinase inhibitory activity increased in a dose-dependent fashion (Figure 2A). […]. To gain insight into the interaction of the enzyme with phlorotannins, as tyrosinase inhibitors, the products of the catalytic reaction were determined by ultraviolet-visible photometry after the inhibitor was added to the enzyme solution. The IC50 values of compounds 3 and 5 increased linearly with [S]/Km (Figure 2B). […]. Phlorotannins from seaweeds have been used to develop the non-competitive tyrosinase inhibitors 7-phloroeckol, dieckol, and phlorofucofuroeckol A, and the competitive inhibitors phloroglucinol and eckstolonol.
To evaluate inhibitory activity on tyrosinase with isolated compounds, 130 μL of tyrosinase in […] phosphate buffer (pH 6.8) was divided in 96 well plates. 20 μL of compound concentrations ranging from 1–0.015 mM was added. 50 μL of 1.5 mM L-tyrosine in phosphate buffer was diluted into the mixture for calculating the inhibitory activity. 50 μL of 10–0.62 mM L-tyrosine in buffer was added to analyze initial velocity (v0). After starting their reaction for 20 min, an amount of the product was detected at UV–vis 475 nm. […]

The target in assay [3] is T1, tyrosinase. To be noted: cited from earlier work; for Mode of tyrosinase inhibition (literature): phlorotannins from seaweeds.

“And” between values parts separate entries of the source, which are not always exact repeats. Equal entries are not always repeated. Where two headings read alike, the source gives them in different places.

T1 sequence (C7FF04 1-392 limits assumed): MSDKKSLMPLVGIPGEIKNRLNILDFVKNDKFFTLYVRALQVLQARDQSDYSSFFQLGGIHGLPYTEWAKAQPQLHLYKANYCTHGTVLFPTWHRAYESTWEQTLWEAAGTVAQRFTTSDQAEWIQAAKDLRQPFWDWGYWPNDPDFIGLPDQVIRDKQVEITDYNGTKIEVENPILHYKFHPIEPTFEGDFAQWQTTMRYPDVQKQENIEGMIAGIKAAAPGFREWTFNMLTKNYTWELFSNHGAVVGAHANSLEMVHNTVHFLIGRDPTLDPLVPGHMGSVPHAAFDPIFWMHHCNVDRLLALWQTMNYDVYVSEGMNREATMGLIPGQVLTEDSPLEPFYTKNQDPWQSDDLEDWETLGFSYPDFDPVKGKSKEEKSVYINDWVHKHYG

Regarding `Oc1cc(O)cc(Oc2c(O)cc(O)c3c2Oc2c(O)cc(O)c(-c4c(O)cc(O)c5c4Oc4c(O)cc(Oc6c(O)cc(O)cc6O)c(Oc6cc(O)cc(O)c6)c4O5)c2O3)c1` [Compound 5, 2-O-(2,4,6-trihydroxyphenyl)-6,6′-bieckol], at tyrosinase [1], the Ki stood at 4.4 µM and the Slow-binding mechanism result is “a two-step binding mechanism”. Further, on tyrosinase [1] (slow-binding mechanism B), the K5 came out at 0.0047 s⁻¹ and the K6 turned out to be 0.0003 s⁻¹. Further, on tyrosinase [2], the Binding mode result is “Competitive” and the Ki came to 5.8 µM. Also, on tyrosinase [2] (compound at 100 μM, triplicate), the inhibition at 100 µM is 86.9 ± 0.9%. The IC50 at tyrosinase [2] (triplicate, read-out: IC50) is < 10 µM and 8.8 µM.

`Oc1cc(O)cc(Oc2c(O)cc(O)c3c2Oc2c(O)cc(Oc4c(O)cc(O)cc4O)cc2O3)c1` [7-phloroeckol]: the “Mode of tyrosinase inhibition (literature)” value (“Mode of tyrosinase inhibition” for short) on tyrosinase [3] is “non-competitive”.

Take `Oc1cc(O)cc(O)c1` [phloroglucinol]: the “Mode of tyrosinase inhibition” value at tyrosinase [3] is given as “competitive”.

With `Oc1cc(O)cc(Oc2c(Oc3c(O)cc(O)cc3O)cc(O)c3c2Oc2c(O)cc(O)cc2O3)c1` [Compound 3, 2-phloroeckol], on tyrosinase [1], the Ki was found to be 6.5 µM and the Slow-binding mechanism entry is recorded as “a single-step binding mechanism”. On tyrosinase [1] (slow-binding mechanism A), this compound came in with a K3 of 0.0002 mM/s and a k4 of 0.0013 s⁻¹. At tyrosinase [2], the Binding mode entry was “Competitive” and the Ki was 8.2 µM. Moreover, the inhibition at 100 µM at tyrosinase [2] (compound at 100 μM, triplicate) amounted to 94.7 ± 1.4%. Further, the IC50 on tyrosinase [2] (triplicate, read-out: IC50) was < 10 µM and 7 µM.

Regarding `Oc1cc(O)cc(Oc2c(O)cc(O)c3c2Oc2c(O)cc4oc5c(Oc6cc(O)cc(O)c6)c(O)cc(O)c5c4c2O3)c1` [Compound 4, phlorofucofuroeckol A], the “Mode of tyrosinase inhibition” value on tyrosinase [3] is “non-competitive”. On tyrosinase [2] (IC50, triplicate), this compound displayed an IC50 of 66.4 ± 0.1 µM. Moreover, the inhibition at 100 µM at tyrosinase [2] (compound at 100 μM, triplicate) was found to be 57.1 ± 3.3%.

Turning to `Oc1cc(O)cc(Oc2c(O)cc(O)c3c2Oc2c(cc(O)c(-c4c(O)cc5c(c4O)Oc4c(Oc6cc(O)cc(O)c6)c(O)cc(O)c4O5)c2O)O3)c1` [Compound 7, 8,8′-bieckol], the inhibition at 100 µM at tyrosinase [2] was determined as 43.3 ± 1.5%.

With triphlorethol A [Compound 1], the “Inhibitory activity on tyrosinase at 100 μM (%)” value at tyrosinase [2] (compound at 100 μM, triplicate) is 26.7 ± 1.0%.

On to `Oc1cc(O)cc(Oc2c(O)cc(O)c3c2Oc2c(O)cc(O)cc2O3)c1` [Compound 2, eckol], for which the “Binding mode (reported)” value on tyrosinase [3] is reported as “Reported as non-competitive ^d”. Moreover, the IC50 against tyrosinase [2] (IC50, triplicate) worked out at 13.5 ± 0.1 µM. For the same compound, at tyrosinase [2] (compound at 100 μM, triplicate), the inhibition at 100 µM was found to be 86 ± 4.7%.

On to `Oc1cc(O)cc(Oc2c(O)cc(O)c3c2Oc2c(cc(O)c(-c4c(O)cc(O)c5c4Oc4c(O)cc(O)c(Oc6cc(O)cc(O)c6)c4O5)c2O)O3)c1` [Compound 6, 6,8′-bieckol], for which, on tyrosinase [2] (compound at 100 μM, triplicate), the inhibition at 100 µM was 41.2 ± 4.3%.

For the compound eckstolonol, the “Mode of tyrosinase inhibition” value on tyrosinase [3] is given as “competitive”.

Take `Oc1cc(O)cc(Oc2c(O)cc(O)c3c2Oc2c(O)cc(Oc4c(O)cc(Oc5c(O)cc(O)c6c5Oc5c(O)cc(O)cc5O6)cc4O)cc2O3)c1` [dieckol]: at tyrosinase [3], the “Mode of tyrosinase inhibition” value is on record as “non-competitive”.
